Experimental data: US20080200454A1, “CARBON-LINKED TETRAHYDRO-PYRAZOLO-PYRIDINE MODULATORS OF CATHEPSIN S” (priority 2007, published 2008)
pIC50: −log10 of the molar value.
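Further: Baculovirus-expressed CatS in pH 5.0 sodium acetate buffer with DTT and NaCl, fluorescence read each minute over 20 min, inhibition derived from rate slope.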

These molecules were tested against Recombinant human cathepsin S (CatS) (Homo sapiens, UniProt P25774) (assay: Recombinant human cathepsin S (CatS) inhibition assay, fluorogenic substrate Z-Valine-Valine-Arginine-AMC). Conditions: not given.
Recombinant human cathepsin S (CatS), sequence (P25774 115-331): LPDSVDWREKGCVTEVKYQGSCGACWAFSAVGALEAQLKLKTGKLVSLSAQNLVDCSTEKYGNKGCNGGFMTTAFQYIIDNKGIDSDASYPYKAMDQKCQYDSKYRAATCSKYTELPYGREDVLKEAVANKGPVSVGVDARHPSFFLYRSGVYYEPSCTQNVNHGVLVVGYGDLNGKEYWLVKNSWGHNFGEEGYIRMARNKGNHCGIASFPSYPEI
Work on `CS(=O)(=O)N1CCc2c(c(-c3ccc(Cl)c(CCc4ccc(F)cc4F)c3)nn2CCCN2CCOCC2)C1` [Example 59, 3-{4-Chloro-3-[2-(2,4-difluoro-phenyl)-ethyl]-phenyl}-5-methanesulfonyl-1-(3-morpholin-4-yl-propyl)-4,5,6,7-tetrahydro-1H-pyrazolo[4,3-c]pyridine] yielded a pIC50 of 6.18. `CS(=O)(=O)N1CCc2c(c(-c3ccc(Cl)c(C#Cc4ccc(CNCc5ccc(Cl)c(Cl)c5)cc4)c3)nn2CCCN2CCOCC2)C1` [Example 212, 1-[4-({2-Chloro-5-[5-(methylsulfonyl)-1-(3-morpholin-4-ylpropyl)-4,5,6,7-tetrahydro-1H-pyrazolo[4,3-c]pyridin-3-yl]phenyl}ethynyl)phenyl]-N-[(3,4-dichlorophenyl)methyl]methanamine] was tested, and the pIC50 was 7.10. `CS(=O)(=O)N1CCc2c(c(-c3ccc(Cl)c(C#Cc4ccc5c(c4)CNCC5)c3)nn2CCCN2CCC(C(N)=O)CC2)C1` [Example 135, 1-(3-{3-[4-Chloro-3-(1,2,3,4-tetrahydro-isoquinolin-7-ylethynyl)-phenyl]-5-methanesulfonyl-4,5,6,7-tetrahydro-pyrazolo[4,3-c]pyridin-1-yl}-propyl)-piperidine-4-carboxylic acid amide] showed a pIC50 of 7.22. For `CC(C)(C)OC(=O)N1Cc2cc(C#Cc3cc(-c4nn(CCCN5CCOCC5)c5c4CN(S(C)(=O)=O)CC5)ccc3Cl)ccc2C[C@H]1C(=O)O` [Example 191, (3S)-7-({2-Chloro-5-[5-(methylsulfonyl)-1-(3-morpholin-4-ylpropyl)-4,5,6,7-tetrahydro-1H-pyrazolo[4,3-c]pyridin-3-yl]phenyl}ethynyl)-2-{[(1,1-dimethylethyl)oxy]carbonyl}-1,2,3,4-tetrahydroisoquinoline-3-carboxylic acid], the pIC50 was 6.20. `COC(=O)[C@@H]1Cc2ccc(C#Cc3cc(-c4nn(CCCN5CCOCC5)c5c4CN(S(C)(=O)=O)CC5)ccc3Cl)cc2CN1C(=O)OC(C)(C)C` [Example 190, 2-(1,1-Dimethylethyl) 3-methyl (3S)-7-({2-chloro-5-[5-(methylsulfonyl)-1-(3-morpholin-4-ylpropyl)-4,5,6,7-tetrahydro-1H-pyrazolo[4,3-c]pyridin-3-yl]phenyl}ethynyl)-3,4-dihydroisoquinoline-2,3(1H)-dicarboxylate] was tested, and the pIC50 was 5.95. `CCNCc1cc(C#Cc2cc(-c3nn(CCCN4CCOC[C@@H]4C)c4c3CN(C(=O)C(N)=O)CC4)ccc2Cl)ccc1Cl` [Example 566, 2-(3-[4-Chloro-3-({4-chloro-3-[(ethylamino)methyl]phenyl}ethynyl)phenyl]-1-{3-[(3S)-3-methylmorpholin-4-yl]propyl}-1,4,6,7-tetrahydro-5H-pyrazolo[4,3-c]pyridin-5-yl)-2-oxoacetamide] was tested, and the pIC50 was 7.70. `CS(=O)(=O)N1CCc2c(c(-c3ccc(Cl)c(C#Cc4ccc5c(c4)CC(C(=O)N4CCCCC4)NC5)c3)nn2CCCN2CCOCC2)C1` (centres unmarked) [Example 204, 6-({2-Chloro-5-[5-(methylsulfonyl)-1-(3-morpholin-4-ylpropyl)-4,5,6,7-tetrahydro-1H-pyrazolo[4,3-c]pyridin-3-yl]phenyl}ethynyl)-3-(piperidin-1-ylcarbonyl)-1,2,3,4-tetrahydroisoquinoline] gave a pIC50 of 6.92. `NC(=O)N1CCc2c(c(-c3ccc(Cl)c(C#Cc4ccc(COCC5CNCCO5)cc4)c3)nn2CCCN2CCSCC2)C1` (centres unmarked) [Example 548, 3-{4-Chloro-3-[(4-{[(morpholin-2-ylmethyl)oxy]methyl}phenyl)ethynyl]phenyl}-1-(3-thiomorpholin-4-ylpropyl)-1,4,6,7-tetrahydro-5H-pyrazolo[4,3-c]pyridine-5-carboxamide] showed a pIC50 of 6.92. `CS(=O)(=O)N1CCc2c(c(-c3ccc(Cl)c(CCCNS(=O)(=O)c4ccccc4[N+](=O)[O-])c3)nn2CCCN2CCC(N3CCCC3=O)CC2)C1` [Example 89, N-{3-[2-Chloro-5-(5-methanesulfonyl-1-{3-[4-(2-oxo-pyrrolidin-1-yl)-piperidin-1-yl]-propyl}-4,5,6,7-tetrahydro-1H-pyrazolo[4,3-c]pyridin-3-yl)-phenyl]-propyl}-2-nitro-benzenesulfonamide] showed a pIC50 of 6.54. `Cc1ccc(S(=O)(=O)NCCCc2cc(-c3nn(CCCN4CCC(N5CCCC5=O)CC4)c4c3CN(S(C)(=O)=O)CC4)ccc2Cl)cc1` [Example 92, N-{3-[2-Chloro-5-(5-methanesulfonyl-1-{3-[4-(2-oxo-pyrrolidin-1-yl)-piperidin-1-yl]-propyl}-4,5,6,7-tetrahydro-1H-pyrazolo[4,3-c]pyridin-3-yl)-phenyl]-propyl}-4-methyl-benzenesulfonamide] showed a pIC50 of 5.98. In the case of `CC1CCCN(CCCCc2cc(-c3nn(CCCN4CCC(N5CCCC5=O)CC4)c4c3CN(S(C)(=O)=O)CC4)ccc2Cl)C1` (centres unmarked) [Example 111, 1-{1-[3-(3-{4-Chloro-3-[4-(3-methyl-piperidin-1-yl)-butyl]-phenyl}-5-methanesulfonyl-4,5,6,7-tetrahydro-pyrazolo[4,3-c]pyridin-1-yl)-propyl]-piperidin-4-yl}-pyrrolidin-2-one], the pIC50 was 5.69. `CS(=O)(=O)N1CCc2c(c(-c3ccc(Cl)c(C#Cc4ccc(CNCc5ccc(Cl)cc5)cc4)c3)nn2CCCN2CCC(c3ccccc3)CC2)C1` [Example 178, 1-{4-[(2-Chloro-5-{5-(methylsulfonyl)-1-[3-(4-phenylpiperidin-1-yl)propyl]-4,5,6,7-tetrahydro-1H-pyrazolo[4,3-c]pyridin-3-yl}phenyl)ethynyl]phenyl}-N-[(4-chlorophenyl)methyl]methanamine] was tested, and the pIC50 was 8.00. Molecule `CS(=O)(=O)N1CCc2c(c(-c3ccc(C(F)(F)F)c(CCc4ccc(Cl)cc4)c3)nn2CC(O)CN2CCC(N3CCCC3=O)CC2)C1` (centres unmarked) [Example 146, 1-{1-[3-(3-{3-[2-(4-Chloro-phenyl)-ethyl]-4-trifluoromethyl-phenyl}-5-methanesulfonyl-4,5,6,7-tetrahydro-pyrazolo[4,3-c]pyridin-1-yl)-2-hydroxy-propyl]-piperidin-4-yl}-pyrrolidin-2-one] has a pIC50 of 7.22. Work on `Cc1ccc(CNCc2ccc(C#Cc3cc(-c4nn(CCCN5CCOCC5)c5c4CN(S(C)(=O)=O)CC5)ccc3Cl)cc2)cc1` [Example 75, (4-{2-Chloro-5-[5-methanesulfonyl-1-(3-morpholin-4-yl-propyl)-4,5,6,7-tetrahydro-1H-pyrazolo[4,3-c]pyridin-3-yl]-phenylethynyl]-benzyl)-(4-methyl-benzyl)-amine] yielded a pIC50 of 6.46.

Same assay, conditions: CatS IC50
`CS(=O)(=O)N1CCc2c(c(-c3ccc(Cl)c(C#Cc4ccc(CNCC(F)(F)F)cc4)c3)nn2CCCN2CCC(N3CCCC3=O)CC2)C1` [Example 348, 1-(1-{3-[3-{4-Chloro-3-[(4-{[(2,2,2-trifluoroethyl)amino]methyl}phenyl)ethynyl]phenyl}-5-(methylsulfonyl)-4,5,6,7-tetrahydro-1H-pyrazolo[4,3-c]pyridin-1-yl]propyl}piperidin-4-yl)pyrrolidin-2-one] showed a pIC50 of 7.00. `CC(=O)NC1CCN(CCCn2nc(-c3ccc(Cl)c(C#Cc4ccc5c(c4)CNCC5)c3)c3c2CCN(S(C)(=O)=O)C3)CC1` [Example 227, N-[1-(3-{3-[4-Chloro-3-(1,2,3,4-tetrahydroisoquinolin-7-ylethynyl)phenyl]-5-(methylsulfonyl)-4,5,6,7-tetrahydro-1H-pyrazolo[4,3-c]pyridin-1-yl}propyl)piperidin-4-yl]acetamide] gave a pIC50 of 7.40. Work on `C[C@H]1COCCN1CCCn1nc(-c2ccc(Cl)c(C#Cc3ccc4c(c3)CN(CC(F)(F)F)CC4)c2)c2c1CCN(S(C)(=O)=O)C2` [Example 501, 7-({2-Chloro-5-[1-{3-[(3S)-3-methylmorpholin-4-yl]propyl}-5-(methylsulfonyl)-4,5,6,7-tetrahydro-1H-pyrazolo[4,3-c]pyridin-3-yl]phenyl}ethynyl)-2-(2,2,2-trifluoroethyl)-1,2,3,4-tetrahydroisoquinoline] yielded a pIC50 of 6.12. In the case of `CS(=O)(=O)N1CCc2c(c(-c3ccc(Cl)c(C#Cc4ccc5c(c4)CN[C@@H](C(=O)N4CCOCC4)C5)c3)nn2CCCN2CCOCC2)C1` [Example 541, (3R)-7-({2-Chloro-5-[5-(methylsulfonyl)-1-(3-morpholin-4-ylpropyl)-4,5,6,7-tetrahydro-1H-pyrazolo[4,3-c]pyridin-3-yl]phenyl}ethynyl)-3-(morpholin-4-ylcarbonyl)-1,2,3,4-tetrahydroisoquinoline], the pIC50 was 6.02. In the case of `C[C@H]1COCCN1CCCn1nc(-c2ccc(Cl)c(C#Cc3ccc(Cl)c(C(=O)N4CCNCC4)c3)c2)c2c1CCN(C(=O)C(N)=O)C2` [Example 574, 2-[3-(4-Chloro-3-{[4-chloro-3-(piperazin-1-ylcarbonyl)phenyl]ethynyl}phenyl)-1-{3-[(3S)-3-methylmorpholin-4-yl]propyl}-1,4,6,7-tetrahydro-5H-pyrazolo[4,3-c]pyridin-5-yl]-2-oxoacetamide], the pIC50 was 6.85. `CS(=O)(=O)N1CCc2c(c(-c3ccc(Cl)c(C#Cc4ccccc4Cl)c3)nn2CCCN2CCOCC2)C1` [Example 26, 3-[4-Chloro-3-(2-chloro-phenylethynyl)-phenyl]-5-methanesulfonyl-1-(3-morpholin-4-yl-propyl)-4,5,6,7-tetrahydro-1H-pyrazolo[4,3-c]pyridine] showed a pIC50 of 6.14. `COC(=O)[C@H]1Cc2ccc(C#Cc3cc(-c4nn(CCCN5CCOCC5)c5c4CN(S(C)(=O)=O)CC5)ccc3Cl)cc2CN1` [Example 200, Methyl (3R)-7-({2-chloro-5-[5-(methylsulfonyl)-1-(3-morpholin-4-ylpropyl)-4,5,6,7-tetrahydro-1H-pyrazolo[4,3-c]pyridin-3-yl]phenyl}ethynyl)-1,2,3,4-tetrahydroisoquinoline-3-carboxylate] was tested, and the pIC50 was 7.05. Molecule `CS(=O)(=O)N1CCc2c(c(-c3ccc(Cl)c(CCCN4CCC(F)(F)CC4)c3)nn2CCCN2CCC(N3CCCC3=O)CC2)C1` [Example 104, 1-{1-[3-(3-{4-Chloro-3-[3-(4,4-difluoro-piperidin-1-yl)-propyl]-phenyl}-5-methanesulfonyl-4,5,6,7-tetrahydro-pyrazolo[4,3-c]pyridin-1-yl)-propyl]-piperidin-4-yl}-pyrrolidin-2-one] has a pIC50 of 6.03.

Same assay, conditions: CatS IC50, Table 2; average of results obtained
`CS(=O)(=O)N1CCc2c(c(-c3ccc(Cl)c(C#CCCO)c3)nn2CCCN2CCOCC2)C1` [Example 45, 4-{2-Chloro-5-[5-methanesulfonyl-1-(3-morpholin-4-yl-propyl)-4,5,6,7-tetrahydro-1H-pyrazolo[4,3-c]pyridin-3-yl]-phenyl}-but-3-yn-1-ol] was tested, and the pIC50 was 6.04.
